Earlier results in US10888535B2, “Skin disinfectant composition” (priority 2015, dated 2021).

Row | SMILES | solubility in water
1 | CCCCCCCCNC(=N)NC(=N)NCc1ccc(Cl)c(Cl)c1 [Olanexidine, 1-(3,4-dichlorobenzyl)-5-octylbiguanide] | extremely insoluble in water
2 | CCCCCCCCN=C(N)NC(N)=NCc1ccc(Cl)c(Cl)c1.O=C(O)[C@H](O)[C@@H](O)[C@H](O)[C@H](O)CO [gluconate of olanexidine] | sufficient solubility in water
